Measured values from PMC3288053 (PLoS ONE, 2012).

How the values were obtained:
[1] = tested on: 3T3-L1 adipocytes; assay: GLUT4 translocation by immunofluorescence in 3T3-L1 adipocytes; assay type: cell-based; details: Rut 20 µM, insulin 17 nM
Method: For GLUT4 translocation assay in 3T3-L1 adipocytes, the cells are fully differentiated (the 10th day after MDI stimulation), and seeded onto 24-well plates. After cultured in serum-free medium for 8 h, cells are incubated with Rut for 2 h and insulin for 10 min, and then rinsed with PBS, fixed with 4% formaldehyde for 10 min, and permeated with 0.2% Triton X-100 in PBS for 10 min. Cells are subsequently washed with PBS and 3% bovine serum albumin for 20 min, and sequentially incubated with primary antibody (Abcam GLUT4 antibody) for 1 h and secondary antibody (Alexa Fluor 488 conjuncted anti-mouse antibody) for another 1 h. Finally, the glass-slips are washed with PBS for examination using OLYMPUS FV-1000 confocal microscope. All pictures are made in the same time experiment.

[2] = target: T1, FXR: RXRα (Homo sapiens, UniProt P19793+Q96RI1); assay: Transient transfection luciferase assay in HEK293 cells (FXRE); assay type: cell-based; details: HEK293, 24 h
T1 construct: expressed in transfected cells; host or cells: HEK293
Method: HEK293 cells are transiently transfected by Lipo2000 respectively with RXRα, PPARγ, FXR, and LXRα plasmids plus pGL3-RXRE luciferase vector and renilla luciferase vector for 5 hours. Cells are then incubated with indicated concentrations of compounds for another 24 h and finally lysed. Luciferase activities are measured using Dual Luciferase Assay System kit. Rut dose-dependently activates (a) RXRα:RXRα and (b) PPARγ:RXRα activities. Rut has no effects on (c) FXR: RXRα and (d) LXRα:RXRα activities. Data are presented as means ± s.e.m (*P<0.05, **P<0.01) from three independent experiments.
HEK293 cells are transfected with luciferase reporter plus Renilla luciferase vector and other plasmids if needed for 5 hours, and cells are then incubated with indicated concentrations of compounds for another 24 h. Finally cells are lysed and luciferase activities are measured using Dual Luciferase Assay System kit. The results are presented as the fold activation relative to untreated cells after normalization with Renilla luciferase values. Each experiment is repeated at least twice, with each sample analyzed in triplicates.

[3] = target: T2, PPARγ-LBD (Homo sapiens, UniProt P37231); assay: SPR (Biacore) binding assay; details: 1:1 Langmuir fitting
T2 construct: pET15b-PPARγ-LBD202–477; His-tag (N); made in house; host or cells: E. coli BL21 (DE3)
Method: Binding affinities of Rut towards proteins are analyzed using SPR technology based Biacore 3000 instrument (GE Healthcare). In the assay, proteins are immobilized to CM5 chips using a standard amine-coupling procedure (Biacore manual). The proteins to be covalently bound to the chips are diluted in 10 mM sodium acetate buffer (pH4.5) to a final concentration of 0.10 mg/ml. Before experiments, baseline is equilibrated with a continuous flow of running buffer (10 mM HEPES, 150 mM NaCl, 3 mM EDTA, and 0.005% (v/v) surfactant P20, pH7.4) for 2 hours. Subsequently, Rut with a gradient of concentrations is injected to the channels at a flow rate of 20 µL/min for 60 seconds, followed by disassociation for 120 seconds. The 1∶1 Langmuir binding fitting model in BIAevaluation software version 3.1 (Biacore) is used to determine the equilibrium dissociation constants (K Ds) of compounds. […] Different concentrations of PPARγ-LBD or RXRα-LBD are injected to the channel at a flow rate of 20 µL/min for 60 s, followed by disassociation for 120 s.

[4] = tested on: GLUT4 in 3T3-L1 adipocytes; assay: Western blot of GLUT4 protein level; assay type: cell-based; details: Rut 20 µM
Method: Insulin sensitizing effects of Rut are investigated in CHO-K1 and 3T3-L1 adipocytes. After incubation with compounds in serum-free medium for indicated time, cells are stimulated with insulin (170 nM for CHO-K1 cells and 17 nM for 3T3-L1 adipocytes) for 5 min, and the stimulation is stopped by ice-cold PBS. The effect of Rut on insulin signaling is also investigated in CHO-K1 cells. In the assay, cells are stimulated with Rut (20 µM, 8 h) or insulin (170 nM, 5 min), and then lysed on ice. GLUT4 protein level is studied in the differentiated 3T3-L1 adipocytes (the 10th day after MDI stimulation). […] The proteins are resolved by SDS-polyacrylamide gel electrophoresis and electro-transferred to polyvinylidene difluoride membranes. The membrane is blocked by 5% skimmed milk and incubated with antibodies. Proteins are visualized by the ECL detecting system.

T1 sequence (Q96RI1 whole entry): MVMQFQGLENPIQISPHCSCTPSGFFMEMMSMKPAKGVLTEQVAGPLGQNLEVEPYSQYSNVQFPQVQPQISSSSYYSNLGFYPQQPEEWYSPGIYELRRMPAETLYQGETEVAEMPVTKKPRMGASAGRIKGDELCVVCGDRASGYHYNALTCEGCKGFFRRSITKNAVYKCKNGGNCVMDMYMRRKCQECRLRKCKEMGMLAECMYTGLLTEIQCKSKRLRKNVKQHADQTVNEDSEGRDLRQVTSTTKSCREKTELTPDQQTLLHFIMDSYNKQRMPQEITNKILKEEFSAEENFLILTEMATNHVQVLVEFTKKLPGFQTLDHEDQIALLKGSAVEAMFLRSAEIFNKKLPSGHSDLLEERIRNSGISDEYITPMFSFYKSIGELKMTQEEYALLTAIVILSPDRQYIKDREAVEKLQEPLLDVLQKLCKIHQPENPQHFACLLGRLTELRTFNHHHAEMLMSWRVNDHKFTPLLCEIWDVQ
T1 sequence (P19793 whole entry): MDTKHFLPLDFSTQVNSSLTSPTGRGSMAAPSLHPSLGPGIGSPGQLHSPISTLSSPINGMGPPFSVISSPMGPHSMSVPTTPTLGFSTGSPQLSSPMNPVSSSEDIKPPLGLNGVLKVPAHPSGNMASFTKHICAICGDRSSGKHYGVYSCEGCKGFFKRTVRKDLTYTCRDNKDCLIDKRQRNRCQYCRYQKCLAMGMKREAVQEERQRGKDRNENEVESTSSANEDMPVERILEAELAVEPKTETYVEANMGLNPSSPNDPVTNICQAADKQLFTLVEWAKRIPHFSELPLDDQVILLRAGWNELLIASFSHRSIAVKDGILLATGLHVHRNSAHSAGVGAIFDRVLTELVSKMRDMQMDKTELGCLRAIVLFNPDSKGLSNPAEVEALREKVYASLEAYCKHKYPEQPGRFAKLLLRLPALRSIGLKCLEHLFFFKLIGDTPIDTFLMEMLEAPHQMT
T2 sequence (P37231 230-505): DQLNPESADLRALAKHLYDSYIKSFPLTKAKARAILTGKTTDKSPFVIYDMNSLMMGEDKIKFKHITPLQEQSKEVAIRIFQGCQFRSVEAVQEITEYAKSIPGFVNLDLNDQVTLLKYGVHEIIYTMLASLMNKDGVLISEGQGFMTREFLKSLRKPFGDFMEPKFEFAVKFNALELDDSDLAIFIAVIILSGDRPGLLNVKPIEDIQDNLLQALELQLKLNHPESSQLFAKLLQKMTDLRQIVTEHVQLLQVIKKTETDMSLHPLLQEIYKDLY

C=CC(C)(C)c1cc2cc3c(cc2oc1=O)O[C@H](C(C)(C)OC(C)=O)C3 [(+)-Rutamarin]
GLUT4 translocation in fully differentiated 3T3-L1 adipocytes [1]: significantly induces
activity of FXR-response element (FXRE) [2]: without influencing
equilibrium dissociation constant KD / binding to PPARγ-LBD [3]: no binding
GLUT4 protein level ([4]; 8th hour): no obvious increment
GLUT4 protein level ([4]; 48 hours): potently increases
